Patent US20090131523A1, “Lipid compositions for the treatment and prevention of proliferative diseases and for the reduction of incidences of mutagenesis and carinogenesis” (Enzymotec Ltd., priority 2007, published 2009)

Key:
[1] = system: tk locus of L5178Y mouse lymphoma cells; type: cell-based; details: 10 μg/ml
Description: The MLA assay evaluates the mutagenic potential of the tested oils based on quantitation of forward mutations at the tk locus of L5178Y in mouse lymphoma cells. The mutagenicity of the test agents is indicated by the increase in the number of mutants after treatment. The tk enzyme is responsible for incorporating exogenous thymidine via a salvage pathway, into the cell in the form of thymidine monophosphate. Analogues of thymidine, such as trifluorothymidine (TFT) can also be phosphorylated by tk enzyme, which leads to cell toxicity. Forward mutation at this locus results in a loss of tk activity and subsequent resistance to TFT, which is used as the selective agent to kill wild type cells. Thus the tk mutants are not killed by TFT and are able to survive due to their ability to synthesize […] de novo.
The objective of the MLA assay was to study the inhibitory effect of Fat blend 6 (Table 2) on the incidence of mammalian cell gene mutations. Each group of L5178Y cells was incubated with one of the tested oils, i.e. with Fat blend 6 or with oil containing low palmitic acid (LPO), and the incidence of specific mutations was examined using the MLA assay. The study experiments were performed with a constant concentration of reference mutagen. Additionally, several concentrations of the test items were used. Positive and negative controls were included in the experiment.
Study procedure: 1×10^7 cells/culture (80 cm^2 flasks) were exposed to several concentrations of tested oil in the presence of the mutagen (10 μg/ml MMS) in parallel to the negative and positive controls (Table 6, FIG. 2). Cells were incubated with the tested oil and mutagen for 3-4 hours to induce and increase the efficiency of anti-mutagenesis effect. Following the incubation, the mutagen was removed by centrifugation (400 g, 5 min) and the cells were washed twice. Subsequently the cells were re-suspended in growth medium for an expression period of 4 days. Following expression period, cultures were seeded in selective medium (containing TFT). Cells from each experimental group were seeded in four 96-well plates at a density of 2000 cells/well in selective medium. After an incubation period of 11 days at 37±1° C., 5±0.5% CO2 and 95±5% humidified atmosphere, the number of colony containing/empty wells was scored using microscope. The colonies size and/or morphology were also characterized. The inhibitory effect of the 2 tested oils was evaluated using the following criteria: (a) a decrease of Mutation Frequencies in the presence of tested oil related to the positive control. (b) Decreased occurrence of small colonies (slow growth colonies) indicated by a high large/small colonies ratio was an indication for inhibitory potential clastogenic effects and/or chromosomal aberrations.
The study was conducted based on the Ninth Addendum to OECD Guidelines for Testing of Chemicals, Section 4, No. 476, “In Vitro Mammalian Cell Gene Mutation Test”, adapted 21 Jul. 1997. This type of study was used in Whittaker P, Evaluation of commercial kava extracts and kavalactone standards for mutagenicity and toxicity using the mammalian cell gene mutation assay in L5178Y mouse lymphoma cells, Food Chem. Toxicol. 2007.

[2] = system: squamous cell carcinoma (SCC); details: Harris et al. 2005; cited from earlier work
[3] = palmitic acid in yoghurt; Nadathur et al. 1996; cited from earlier work

Compound	% change in mutants compare to MMS treat [1] [%]	Colony Sizing Large/small [1]	Mutants/10^6 cells [1] [per 10^6 cells]	Mutation factor [1]	relative suspension growth (RSG) [1] [%]	association of increasing dietary proportions with squamous cell carcinoma [2]	anti-MNNG activity [3]
COS(C)(=O)=O [MMS, methyl methane sulfonate]	100	1.53	489	12	65.8		
CCCCCCCCCCCCCCCC(=O)O [palmitic acid]						associated with reduced squamous cell carcinoma (SCC)	exerts anti-N-methyl-N′-nitro-N-nitrosoguanidine (MNNG) activity
CCCCCC/C=C\CCCCCCCC(=O)O [palmitoleic acid]						associated with reduced squamous cell carcinoma (SCC)	
